Data set [1] can be described thus: in vivo. The following applies: both, Sprague-Dawley, rat, iv.
The nature of data set [2]: in vivo. The following applies: rat.
In a further data set the target is TMPRSS2 (Homo sapiens, UniProt O15393). Briefly: Cellular TMPRSS2 inhibition assay in Caco-2 cells. It counts as cell-based. Also noted: using Caco-2 and Calu3 cells, both of which express surface TMPRSS2; endogenous in cells; host or cells: Caco-2 cells. As for the experimental part:
Caco-2 cells (1×10^5 per well) were incubated in 96 well plates with 0 to 50 μg/ml of the indicated peptide in the presence of a TMPRSS2 substrate (Boc-Leu-Gly-Arg-AMC) in 50 mM Tris-HCl, pH 7.4. Substrate conversion was monitored in a fluorescence plate reader for 2 hours and inhibition of enzyme activity was expressed relative to a solvent control.
TMPRSS2 inhibition assays. Peptides (0-50 μg/ml) were tested for their inhibitory activities against TMPRSS2 in cellular assays using Vero E6 cells, Caco-2 cells, or Calu-3 cells using standard conditions. TMPRSS2 activity was assayed in real time for 120 min by monitoring the cleavage of the TMPRSS2 substrate, Boc-Leu-Gly-Arg-AMC. Following the 2 h enzyme assay, cells were evaluated for viability using the CellTiter-Glo cellular toxicity assay.

Data set [3] can be described thus: Interspecies allometric scaling to predict human PK and human equivalent dose. Here is the method: Interspecies allometric scaling: Single-dose PK data from mice, rats, cynomolgus monkeys, and a vervet was used to predict human PK parameters using simple allometry. The relationship between CL or Vss obtained from the NCA, and the body weight was described using the following equation: Y=a·BW^b, where Y is the PK parameter (e.g., CL or Vss), BW is the bodyweight of the species, a is an allometric coefficient, and b is an allometric exponent. Linear regression was performed on log-transformed data. The predicted human equivalent dose was calculated based on the allometrically scaled clearance using the following equation: Dose=CL*AUC0-∞. The corresponding average AUCτ and AUC0-∞ at NOAEL and LOAEL, respectively, were used to convert the doses at NOAEL and LOAEL in preclinical animals to HED.

Data set [4] can be described thus: Mouse model of LPS-induced acute lung injury (ALI), subcutaneous injection. The following applies: in vivo, sc.
Data set [5] in a line: in vivo. The following applies: both, cynomolgus monkey, iv.
The nature of data set [6]: Single i.v. bolus PK in a vervet monkey (pilot safety study). The note with it: single 3 mg/kg i.v. bolus. The format is in vivo, vervet/African green monkey (Chlorocebus aethiops sabaeus). As for the experimental part:
Vervet monkey studies: As a pilot safety study, a single dose of Peptide 1 (SEQ ID NO. 1) at 3 mg/kg was administered to an adult male vervet/African green monkey (Chlorocebus aethiops sabaeus) via i.v. bolus. Serial blood samples were collected at 0.5, 1, 4, 8, 24, 48, 72, 96, 120, and 192 h post-administration.
Bioanalytical analysis: Clarified plasma samples from mice were directly diluted into 5% formic acid/5% acetonitrile. Quantitative analysis of Peptide 1 (SEQ ID NO. 1) was performed by LC-MS/MS with reverse-phase liquid chromatography (XBridge™ BEH phenyl 3.5 μm 3×100 mm column, Waters #186003328) on an Acquity™ H-Class UPLC (Waters) coupled to a Xevo™ TQ-S tandem electrospray mass spectrometry running MassLynx™ V4.1 (Waters). Quantitative mass spectroscopy was performed by multiple-reaction monitoring transition 417.32>517.21, with the area under the curve determined by TargetLynx™ (Waters). A synthetic theta defensin-like peptide was used as an internal standard (IS). The lower limit of quantification (LLOQ) of the assay was 1 ng/mL. Intra- and inter-assay precision (percent coefficient of variation [CV]) was ≤3%, and intra and interassay accuracy (% relative error) was ≤5%. Plasma Peptide 1 (SEQ ID NO. 1) concentration analyses for rats and cynomolgus monkey studies were performed at MicroConstants (San Diego, CA) by HPLC using a Mac-Mod™ Analytical ACE C4 column. The mobile phase was nebulized using heated nitrogen in Z-Spray source/interface set to electrospray positive ionization mode, and the compound was detected using MS/MS (LLOQ=10.0 ng/mL). Details of the method are summarized in the MicroConstants method No. MN20038. Clarified plasma samples from a serially sampled vervet were quantified by ultra-performance liquid chromatography Waters Acquity H-Class UPLC. […] Peptide 1 (SEQ ID NO. 1) peak and mass confirmation was performed on post PDA eluent using a Micromass Quattro Ultima™ mass spectrometer with MassLynx™ 4.1 (Waters). The lower limit of quantitation (LLOQ) ranged from 10-30 ng/mL (determined by sample background) to an upper limit of 50 ug/mL. RTD-2 (10 ug/mL) was used as an internal standard. Intra- and interassay precision (% coefficient of variation [CV]) was ≤3%, and intra and interassay accuracy (% relative error) was ≤5%.
Pharmacokinetic analysis: Non-compartmental analysis (NCA) was performed using Phoenix WinNonlin™ (version 8.3.1, Certara USA, Inc.; Princeton NJ) to determine the PK parameters in mice, rats, cynomolgus monkeys, and the vervet. Nominal sampling times were used in the analysis, and data below the lower limit of quantification of the assay were excluded from the analysis. The maximum plasma concentration (Cmax) was determined from visual inspection of the data. In addition, the following parameters were calculated: terminal elimination rate constant (λz), area under the curve extrapolated to infinity (AUC0-∞), area under the curve to dosing interval (AUCτ), mean residence time (MRT), clearance (CL), and volume of distribution at steady state (Vss). AUC was calculated using the linear up, log down method, and the λz was calculated using up to the last four data points of the log-linear terminal phase of the concentration-time profile. Due to sparsely sampled data in mice and rats, the sparse sampling calculation methodology in Phoenix WinNonlin™ was used, which generated a single estimate without standard error for all parameters, except for Cmax. For rats and cynomolgus monkeys, all parameters were calculated using sampling times relative to the beginning of the i.v. infusion.

For data set [7] the following is noted: rats.

Where two headings read alike, the source gives them in different places. Where a SMILES comes first, the peptide text is derived from it. Bridges are numbered along the chain shown (N, C = ends).

Chain of TMPRSS2 (O15393 whole entry): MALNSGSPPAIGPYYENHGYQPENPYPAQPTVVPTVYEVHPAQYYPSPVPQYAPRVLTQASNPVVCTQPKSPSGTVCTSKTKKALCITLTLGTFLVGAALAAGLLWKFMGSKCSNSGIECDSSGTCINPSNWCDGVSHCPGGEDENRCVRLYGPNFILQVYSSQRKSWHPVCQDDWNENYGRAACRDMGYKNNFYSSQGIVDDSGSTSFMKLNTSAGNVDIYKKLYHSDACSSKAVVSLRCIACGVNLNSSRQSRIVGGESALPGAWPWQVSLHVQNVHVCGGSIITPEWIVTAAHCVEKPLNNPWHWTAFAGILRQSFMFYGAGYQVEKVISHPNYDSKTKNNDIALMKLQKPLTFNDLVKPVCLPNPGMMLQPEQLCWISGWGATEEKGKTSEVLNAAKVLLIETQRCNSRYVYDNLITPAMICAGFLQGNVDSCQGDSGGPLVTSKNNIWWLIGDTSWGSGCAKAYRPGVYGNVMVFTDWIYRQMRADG

For `CC[C@H](C)[C@@H]1NC(=O)[C@@H]2CSSC[C@H](NC(=O)[C@H](CCCNC(=N)N)NC(=O)[C@@H]3CSSC[C@H](NC1=O)C(=O)N[C@@H]([C@@H](C)O)C(=O)N[C@@H](CCCNC(=N)N)C(=O)NCC(=O)N[C@@H](Cc1ccccc1)C(=O)N3)C(=O)N[C@@H](CC(C)C)C(=O)N[C@H]1CSSC[C@H](NC(=O)[C@H](C(C)C)NC(=O)CNC(=O)[C@H](CCCNC(=N)N)NC(=O)[C@H](CCCNC(=N)N)NC1=O)C(=O)N[C@@H](CCCNC(=N)N)C(=O)N2` [Peptide 1] (cyclo(GFCRCLCRRGVCRCICTR); disulfide 3-16, 5-14, 7-12), in “in vivo [1]”, the NOAEL – broadly, the highest dose or exposure tested at which no adverse effect was seen – at 7 days amounted to 10 mg/kg/day. Moreover, in the data set “in vivo [2]”, the MTD was found to be 20 mg/kg. The half-maximal inhibitory concentration (IC50) (as a rule, the concentration that gives 50% inhibition) against TMPRSS2 was 3.12 to 3.84 µM. For the same compound, the “HED equivalent to NOAEL in cynomolgus monkeys” value in data set [3] (70 kg individual) is reported as 15.9 mg/kg. For the same compound, the “HED equivalent to NOAEL in rats” value in data set [3] (70 kg individual) was 3.1 mg/kg. In data set [3] (adult 70 kg, simple allometry), the “predicted human Vss” value is recorded as 28.0 L. For the same compound, the AUC(0-inf) (as a rule, the area under the concentration-time curve extrapolated to infinity) in data set [4] (5 mg/kg) is 3870 ng·h/mL; in data set [4] (25 mg/kg), 9000 ng·h/mL; in data set [6] (male, monkey, plasma, iv), 22100 ng·h/mL. In the data set “in vivo [5]”, this compound registered an NOAEL at 10 days of 15 mg/kg/day. Besides, the AUC (usually concentration integrated over time) in data set [6] (male, monkey, plasma, iv) came out at 21900 ng·h/mL. In addition, the highest concentration (Cmax) (usually the maximum level reached in the sampled fluid or tissue) in data set [6] (male, monkey, plasma, iv) came out at 5190 ng/mL. The MRT (in general, the average time that molecules of a dose stay in the body) in data set [6] (male, monkey, plasma, iv) was determined as 4.71 h. Besides, in data set [6] (male, monkey, plasma, iv), the clearance (commonly the rate of elimination divided by the concentration) is 2.27 mL/min/kg. Also, in data set [6] (male, monkey, plasma, iv, read-out: Vss), the Vd is 0.639 L/kg. Further, the λz was 0.204 h⁻¹ in data set [6]; 0.056 h⁻¹ in data set [7] (5 mg/kg i.v., Day 1); 0.104 h⁻¹ in data set [7] (5 mg/kg/day i.v., Day 7); 0.148 h⁻¹ in data set [7] (10 mg/kg i.v., Day 1); 0.133 h⁻¹ in data set [7] (10 mg/kg/day i.v., Day 7); 0.221 h⁻¹ in data set [7] (20 mg/kg i.v., Day 1). Further, the results for the “AUCτ on Day 7 lower than AUC0-∞ on Day 1” value in data set [7] (5 mg/kg group) and in data set [7] (10 mg/kg group) were 22% and 19%, respectively. The “plasma levels during recovery period” value in data set [7] (Day 25, all but one rat) was “undetectable”.

The values above are taken from patent US20240108702A1, “Use Of Naturally Occurring Cyclic Peptides For Treatment Of SARS-COV-2 Infection” (The University of Southern California, priority 2021, published 2024).
